Test results: paper PMC8148468, “Shikimic acid protects skin cells from UV-induced senescence through activation of the NAD+-dependent deacetylase SIRT1” (Aging (Albany NY), 2021)

Columns and labels:
Format in all cases: cell-based, human
[1] = tested on: HAS2 (hyaluronic acid synthase 2); assay: UVB-induced senescence assay: HAS2 gene expression (qPCR); conditions: UVB-irradiated HDF
p21 = p21 mRNA levels (qPCR); conditions: UVB-irradiated HDF, SA treatment
Procedure: RNA was extracted from cell pellets using the Total RNA Purification Kit (Norgen, Canada), according to the manufacturer’s protocol. […] The primers and their respective sequences are listed in Supplementary Table 1. qPCR protocol included one step at 95° C for 30 s, 40 cycles at 95° C for 10s, and 60° C for 1min. The results were analyzed with Bio-Rad CFX Manager software. BACT was used as a housekeeping gene to normalize gene expression. page 6: Supplementary Figure 6. Quantification (n=3) of the percentage of cells in each cell cycle phase and poliploydies in (A) non-irradiated cells treated with Shikimic acid at the indicated doses and (B) UVB-irradiated cells treated with Shikimic acid at the indicated doses, following the senescence induction method described in Figure 2A. (C) Relative p21 mRNA levels (n=3) in UVB-irradiated cells treated with Shikimic acid at the indicated doses, following the senescence induction method described in Figure 2A. (D) Second (PC-2) and third (PC-3) principal components in the fingerprint region (1800–950 cm−1) from the samples mentioned in Figure 4G. Student T-test, *p<0.05, **p<0.01, ***p<0.001. www.aging-us.com 6 AGING (1 picture or pasted object on this page, not shown here)

chaperone BiP = assay: BiP protein levels (Western blot); conditions: UVB-irradiated cells, SA -/+ EX-527 1 μM
Procedure: Figure 5 (A) Western-blot of BiP proteins levels in UVB or non UVB irradiated cells treated with SA at the indicated concentrations in presence or absence of EX-527 1 μM. (B) Quantification of n=3 experiments as (A). The levels of BiP are normalized by the loading control (histone H3) and represented related to the conditions in UVB irradiated cells in absence of SA and EX-527. Student T-test, *p<0.05. (C) Percentage of SA-β-Gal in assays performed as in Figure 3C. (D) Levels of spliced and unspliced XBP1 mRNA monitored by qPCR analysis in cells treated in the indicated conditions in presence or absence of SA and/or EX-527. The levels were normalized by internal controls and represented in each case related to the conditions in UVB irradiated cells in absence of SA and EX-527. Student T-test, *p<0.05, **p<0.01, ***p<0.001. (E) LC3-II protein levels in experiments like in (A). The levels of LC3-II are normalized by the loading control (tubulin) and represented related to the conditions in UVB irradiated cells in absence of SA and EX-527. Student T-test, *p<0.05. (F) Proposed Model for the effect of SA on senescence through SIRT1. Other possible unexplored connections between SA and senescence are indicated by blue broken lines.
Protein levels were analyzed as previously described. Cells were directly lysed in 1x Laemmli Buffer (Bio-Rad, USA), incubated at 95° C and centrifuged. […]

[2] = tested on: H4K16ac (the target of SIRT1 and SIRT2); assay: Sirtuin activity assay in HDF: H4K16ac levels (Western blot); conditions: UV conditions, -/+25mM SA -/+1μM EX-527

Compound: O=C(O)C1=C[C@@H](O)[C@@H](O)[C@H](O)C1 [Shikimic acid]
- HAS2 expression [1]: increase in HAS2 expression
- p21 mRNA levels (p21): did not observe any clear effect
- BiP protein levels (chaperone BiP): induced upregulation of chaperone BiP
- H4K16ac/H4 levels under UV-induced senescence [2]: induced increased deacetylation of H3K9ac and H4K16ac
